ChEMBL document CHEMBL2203219, “Discovery and evolution of phenoxypiperidine hydroxyamide dual CCR3/H₁ antagonists. Part II: optimising in vivo clearance” (Bioorg Med Chem Lett, 2012)
Values belong to the compound of their own block, whether it stands above or below them.

Columns and labels:
[1] = in vitro; settings: human
[2] = in vitro; settings: rat, hepatocytes
[3] = physchem; settings: octanol/water
[4] = in vivo; settings: rat, iv
[5] = in vivo; settings: dog
[6] = Oral bioavailability in dog; format: ADME, organism-based, Canis lupus familiaris; settings: in vivo
[7] = Oral bioavailability in rat; format: ADME, organism-based; settings: in vivo
[8] = in vivo; settings: rat, iv; remark: listed apart in the source
[9] = in vivo; settings: dog; remark: listed apart in the source
[10] = in vivo; settings: rat, iv; remark: listed apart in the source
[11] = organism: Rattus norvegicus; settings: in vivo, iv

microsomal CLint ([1]; liver microsomes): 6 µL/min/mg
hepatocyte CLint [2]: < 3 µL/min/1e6 cells
logD [3]: 3.2
SMILES: O=C(NC[C@@H](O)CN1CCC(Oc2ccc(Cl)c(Cl)c2)CC1)c1c[nH]c(=O)c2c(F)cccc12

microsomal CLint ([1]; liver microsomes): 18 µL/min/mg
hepatocyte CLint [2]: 6 µL/min/1e6 cells
SMILES: N#Cc1ccc(OC2CCN(C[C@H](O)CNC(=O)c3c[nH]c(=O)c4ccccc34)CC2)cc1

microsomal CLint ([1]; liver microsomes): 14 µL/min/mg
hepatocyte CLint [2]: < 3 µL/min/1e6 cells
logD [3]: 2.8
SMILES: CNS(=O)(=O)c1ccc2c(C(=O)NC[C@@H](O)CN3CCC(Oc4ccc(Cl)c(Cl)c4)CC3)c[nH]c(=O)c2c1

microsomal CLint ([1]; liver microsomes): 22 µL/min/mg
hepatocyte CLint [2]: 10 µL/min/1e6 cells
logD [3]: 2.6
SMILES: N#Cc1ccc(OC2CCN(C[C@H](O)CNC(=O)c3c[nH]c(=O)c4ccccc34)CC2)cc1Cl

hepatocyte CLint [2]: 3 µL/min/1e6 cells
SMILES: CS(=O)(=O)c1ccc2c(C(=O)NC[C@@H](O)CN3CCC(Oc4ccc(Cl)c(Cl)c4)CC3)c[nH]c(=O)c2c1

microsomal CLint ([1]; liver microsomes): < 3 µL/min/mg
hepatocyte CLint [2]: < 3 µL/min/1e6 cells
SMILES: NS(=O)(=O)c1ccc2c(C(=O)NC[C@@H](O)CN3CCC(Oc4ccc(Cl)c(Cl)c4)CC3)c[nH]c(=O)c2c1

Vd [4]: 6.4 L/kg
logD [3]: 3.2
SMILES: O=C(NC[C@@H](O)CN1CCC(Oc2ccc(Cl)c(Cl)c2)CC1)c1c[nH]c(=O)c2cc(F)ccc12

microsomal CLint ([1]; liver microsomes): 21 µL/min/mg
hepatocyte CLint [2]: 6 µL/min/1e6 cells
SMILES: O=C(NC[C@@H](O)CN1CCC(Oc2ccc(Cl)c(Cl)c2)CC1)c1c[nH]c(=O)c2cc(S(=O)(=O)NC3CC3)ccc12

microsomal CLint ([1]; liver microsomes): 8 µL/min/mg
hepatocyte CLint [2]: 5 µL/min/1e6 cells
logD [3]: 3.9
SMILES: O=C(NC[C@@H](O)CN1CCC(Oc2ccc(Cl)c(Cl)c2)CC1)c1c[nH]c(=O)c2ccc(F)cc12

microsomal CLint ([1]; liver microsomes): 86 µL/min/mg
hepatocyte CLint [2]: 10 µL/min/1e6 cells
logD [3]: 3.1
SMILES: CN(C)S(=O)(=O)c1ccc2c(C(=O)NC[C@@H](O)CN3CCC(Oc4ccc(Cl)c(Cl)c4)CC3)c[nH]c(=O)c2c1

microsomal CLint ([1]; liver microsomes): 18 µL/min/mg
hepatocyte CLint [2]: 3 µL/min/1e6 cells
logD [3]: 2.5
SMILES: CC1(O)CN(S(=O)(=O)c2ccc3c(C(=O)NC[C@@H](O)CN4CCC(Oc5ccc(Cl)c(Cl)c5)CC4)c[nH]c(=O)c3c2)C1

microsomal CLint ([1]; microsomes): < 3 µL/min/mg
hepatocyte CLint [2]: 7 µL/min/1e6 cells
SMILES: O=C(NC[C@@H](O)CN1CCC(Oc2ccc(Cl)c(Cl)c2)CC1)c1c[nH]c(=O)c2cc(S(=O)(=O)N3CCC3)ccc12

bioavailability [6]: 40%
bioavailability [7]: 11%
SMILES: O=C(NC[C@@H](O)CN1CCC(Oc2ccc(Cl)c(Cl)c2)CC1)c1c[nH]c(=O)c2ccccc12

hepatocyte CLint [2]: 5 µL/min/1e6 cells
SMILES: O=C(NC[C@@H](O)CN1CCC(Oc2ccc(Cl)c(Cl)c2)CC1)c1c[nH]c(=O)c2cc(S(=O)(=O)NCCO)ccc12

microsomal CLint ([1]; liver microsomes): 18 µL/min/mg
CL [11]: 0.0086 mL/min/kg
bioavailability [7]: < 5%
hepatocyte CLint [2]: 2 µL/min/1e6 cells
logD [3]: 1.5
SMILES: NC(=O)c1c(OC2CCN(C[C@H](O)CNC(=O)c3c[nH]c(=O)c4ccccc34)CC2)ccc(Cl)c1Cl

The remaining lines, values behind:

SMILES: Cc1c(Cl)ccc(OC2CCN(C[C@H](O)CNC(=O)c3c[nH]nc3C(F)(F)F)CC2)c1Cl
microsomal CLint ([1]; liver microsomes): < 3 µL/min/mg
hepatocyte CLint [2]: 6 µL/min/1e6 cells

SMILES: Cc1c(Cl)ccc(OC2CCN(C[C@H](O)CNC(=O)c3c[nH]c(=O)cc3C(F)(F)F)CC2)c1Cl
microsomal CLint ([1]; liver microsomes): 6 µL/min/mg
hepatocyte CLint [2]: 3 µL/min/1e6 cells

SMILES: Cc1cc(Cl)ccc1OC1CCN(C[C@H](O)CNC(=O)c2c[nH]c(=O)c3c(F)cccc23)CC1
microsomal CLint ([1]; liver microsomes): 9 µL/min/mg
hepatocyte CLint [2]: 7 µL/min/1e6 cells
logD [3]: 3

SMILES: Cc1cc(Cl)ccc1OC1CCN(C[C@H](O)CNC(=O)c2c[nH]c(=O)c3ccc(S(C)(=O)=O)cc23)CC1
microsomal CLint ([1]; liver microsomes): 7 µL/min/mg
hepatocyte CLint [2]: 8 µL/min/1e6 cells

SMILES: CS(=O)(=O)c1ccc2c(C(=O)NC[C@@H](O)CN3CCC(Oc4ccc(C#N)c(Cl)c4)CC3)c[nH]c(=O)c2c1
logD [3]: 1.4

SMILES: Cc1cc(Cl)ccc1OC1CCN(C[C@H](O)CNC(=O)c2c[nH]c(=O)c3cc(S(C)(=O)=O)ccc23)CC1
microsomal CLint ([1]; liver microsomes): 14 µL/min/mg
hepatocyte CLint [2]: 7 µL/min/1e6 cells
logD [3]: 2.4

SMILES: Cn1cc(C(=O)NC[C@@H](O)CN2CCC(Oc3ccc(Cl)c(Cl)c3)CC2)c(C(F)(F)F)cc1=O
clearance [5]: 8 mL/min/kg
microsomal CLint ([1]; microsomes): 5 µL/min/mg
bioavailability [6]: 81%
bioavailability [7]: 53%
half-life [8]: 9.7 h
hepatocyte CLint [2]: < 3 µL/min/1e6 cells
half-life [9]: 10.8 h
clearance [10]: 9 mL/min/kg

SMILES: O=C(NC[C@@H](O)CN1CCC(Oc2ccc(Cl)c(Cl)c2)CC1)c1c[nH]nc1C1CC1
microsomal CLint ([1]; liver microsomes): 9 µL/min/mg
hepatocyte CLint [2]: < 3 µL/min/1e6 cells

SMILES: Cc1c(Cl)ccc(OC2CCN(C[C@H](O)CNC(=O)c3c[nH]c(=O)c4cc(S(C)(=O)=O)ccc34)CC2)c1Cl
microsomal CLint ([1]; liver microsomes): 13 µL/min/mg
hepatocyte CLint [2]: 12 µL/min/1e6 cells
logD [3]: 2.8

SMILES: Cc1cc(Cl)ccc1OC1CCN(C[C@H](O)CNC(=O)c2c[nH]nc2C(F)(F)F)CC1
microsomal CLint ([1]; microsomes): < 3 µL/min/mg
hepatocyte CLint [2]: 5 µL/min/1e6 cells

SMILES: O=C(NC[C@@H](O)CN1CCC(Oc2ccc(Cl)c(Cl)c2)CC1)c1c[nH]c(=O)cc1C(F)(F)F
microsomal CLint ([1]; liver microsomes): < 3 µL/min/mg
bioavailability [6]: 63%
bioavailability [7]: < 10%
hepatocyte CLint [2]: 4 µL/min/1e6 cells

SMILES: Cc1cc(Cl)ccc1OC1CCN(C[C@H](O)CNC(=O)c2c[nH]c(=O)c3cc(F)ccc23)CC1
microsomal CLint ([1]; liver microsomes): 9 µL/min/mg
hepatocyte CLint [2]: < 3 µL/min/1e6 cells

SMILES: O=C(NC[C@@H](O)CN1CCC(Oc2ccc(Cl)c(Cl)c2)CC1)c1c[nH]nc1C(F)(F)F
microsomal CLint ([1]; liver microsomes): < 3 µL/min/mg
bioavailability [7]: 36%
half-life [8]: 6 h
hepatocyte CLint [2]: 3 µL/min/1e6 cells
clearance [10]: 22 mL/min/kg

SMILES: Cc1cc(Cl)ccc1OC1CCN(C[C@H](O)CNC(=O)c2c[nH]c(=O)cc2C(F)(F)F)CC1
microsomal CLint ([1]; liver microsomes): 3 µL/min/mg
hepatocyte CLint [2]: < 3 µL/min/1e6 cells

SMILES: Cc1c(Cl)ccc(OC2CCN(C[C@H](O)CNC(=O)c3c[nH]c(=O)c4ccc(S(C)(=O)=O)cc34)CC2)c1Cl
microsomal CLint ([1]; liver microsomes): < 3 µL/min/mg
hepatocyte CLint [2]: < 3 µL/min/1e6 cells
logD [3]: 2.8
